Laboratory results published in patent US10314816B2, “Antimicrobial compounds, compositions and methods of use thereof” (Wisconsin Alumni Research Foundation, priority 2012, dated 2019).

Columns and labels:
GFP-MinD = assay: Measurement of compound effects on MinD localization; assay type: cell-based, Bacillus subtilis; settings: B. subtilis cells, treated 20 minutes, compared to DMSO
Protocol: Measurement of compound effects on MinD: B. subtilis DS4294 (amyE::Pxyl-GFP-minD cat) cells were grown to exponential phase (λ=600 nm, 0.4-0.7) in LB with incubation at 30° C. and 200 rpm shaking. Cells were induced for GFP-MinD production by adding xylose to the media to a final concentration of 0.1% (w/v) followed by incubating for 75 min. After induction, cells were treated with compounds for 20 minutes before imaging. Other details for imaging conditions and data analysis were identical to those described for MipZ-YFP, except for the definition of poles, and a set of criteria used for defining ‘wildtype’ protein localization. ‘Wildtype’ was defined as 1) GFP-MinD was bipolar, meaning there were two peaks, and both peaks were at the poles (1-20% and 80-100% of the normalized cell length); 2) GFP-MinD was at the mid-cell in addition to the bipolar localization, meaning there were three peaks with two of them at the poles and one at mid-cell; and 3) GFP-MinD was at an quaternary position (20-40% and 60-80% of the normalized cell length) in addition to the bipolar and mid-cell localization (the total number of peaks was 4 if there is one quaternary peak, and the total was 5 if there are two quaternary peaks). Because B. subtilis cells can initiate division prior to finishing an earlier division and the completion of septation, these normal cells have peaks at quaternary positions. […]

C. crescentus cells [1] = assay: Cell lysis observed by phase contrast microscopy; assay type: cell-based, Caulobacter crescentus
Protocol: The lysed cells appear fainter in phase contrast images, compared to un-lysed cells (e.g., a cell in the white circle).
At high concentrations of DCAP (≥75 μM), cell lysis within minutes after treatment was observed (FIG. 4).

C. crescentus cells [2] = assay: Measurement of ΔΨ using DiOC2, fluorescence microscopy; assay type: cell-based, Caulobacter crescentus; settings: 20 minutes of treatment, p<0.001
Protocol: For experiments with C. crescentus cells, the cells were prepared by diluting the overnight culture 10-fold into fresh PYE medium. The diluted culture was grown for 1 hour at 200 rpm and 30° C. The cells were treated with compounds for 10 minutes at room temperature, DiOC2 dye was added to a final concentration of 30 μM, and incubated for 10 minutes. After labeling, small aliquots (1-2 μl) of the suspensions of cells were transferred onto 1% agarose pads for fluorescence microscopy. A Nikon Eclipse TE2000E inverted microscope with an Andor DU-895 EMCCD camera, a Perfect Focus system, and an encoded z-stage were used for phase contrast and epifluorescence microscopy. For detecting green and red fluorescence of the dye, the following wavelengths (λex/λem): 484/520 nm and 555/620 nm, respectively, were used. Acquired images were analyzed using the MATLAB-based script MicrobeTracker. […] The segmentation was applied to the fluorescence images to calculate the fluorescence intensity for individual cells. A separate MATLAB script was written to process the results from MicrobeTracker, in which the cell-area normalized ratio of red to green fluorescence for each cell was calculated.
ΔΨ was measured for two model bacteria, C. crescentus (Gram-negative) and Bacillus subtilis (Gram-positive), in the absence and presence of DCAP. […] DiOC2 emits green fluorescence (λ=530 nm) in its monomeric form. […]

[3] = test system: C. crescentus strain (MT97); assay: In vivo screen with C. crescentus strain that expresses MipZ-YFP; assay type: cell-based, Caulobacter crescentus; settings: 20 μM in agarose pad; data not shown
Protocol: In vivo screen with a Caulobacter crescentus strain that expresses MipZ-YFP. Hits from in vitro screens were tested for activity in vivo. A C. crescentus strain (MT97) that expresses mipZ-yfp from the native mipZ promoter was used. An overnight culture of MT97 was diluted to an absorbance (λ=600 nm) of ˜0.1; the diluted culture was grown further for at least 1 hour prior to compound treatment. Compounds were mixed with a solution of 1% agarose in M2G media to achieve a final concentration of 20 μM. The cells (1 μL per pad) were transferred on top of the compound-containing agarose pad, and the cell morphology and localization of MipZ-YFP were imaged for a period of 24 hours using epifluorescence microscopy. In between microscopic observations, the inoculated pads were incubated at 30° C. to promote growth.
Hits were further screened for antibacterial activity using a Caulobacter crecentus strain that expresses MipZ-YFP as described in Materials and Methods.

V cholera = assay: MIC of bacterial growth (Table 2); assay type: cell-based; settings: Vibrio cholerae
Protocol: (§1) Determination of the minimum inhibitory concentration (MIC) of bacterial growth. The MIC of various organisms in liquid media was determined using the macrodilution method according to the NCCLS guidelines. For the starting inoculum, cultures were diluted to contain approximately 5×10^5 cells/mL in growth media. To create a two-fold dilution series for the macrodilution technique, each compound was added to the first culture tube (4 mL total volume) at the highest concentration. 2 mL of this culture was diluted into an equal volume of inoculated media (a two-fold dilution). The final volume for each culture was 2 mL.

S. boydii = assay: MIC of bacterial growth (Table 2); assay type: cell-based; settings: Shigella boydii; S. boydii clinical isolate (Table 2)
Protocol: as §1

E. tarda = assay: MIC of bacterial growth (Table 2); assay type: cell-based; settings: Edwardsiella tarda; E. tarda clinical isolate (Table 2)
Protocol: as §1

M. morganii = assay: MIC of bacterial growth (Table 2); assay type: cell-based; settings: Morganella morganii; M. morganii clinical isolate (Table 2)
Protocol: as §1

A. baumannii = assay: MIC of bacterial growth (Table 2); assay type: cell-based; settings: Acinetobacter baumannii; A. baumannii clinical isolate (Table 2)
Protocol: as §1

K. pneumoniae = assay: MIC of bacterial growth (Table 2); assay type: cell-based; settings: Klebsiella pneumoniae; K. pneumoniae clinical isolate (Table 2)
Protocol: as §1

S. typhimurium = assay: MIC of bacterial growth (Table 2); assay type: cell-based; settings: Salmonella enterica; S. typhimurium clinical isolate (Table 2)
Protocol: as §1

Row | SMILES | GFP-MinD localization (GFP-MinD) | Concentration at which cell lysis was observed within minutes after treatment (C. crescentus cells [1]) [µM] | ΔΨ (λ576/λ530 of DiOC2) (C. crescentus cells [2]) | Antibacterial activity in the MipZ-YFP assay [3] | MIC (V cholera) [µM] | MIC (S. boydii) [µM] | MIC (E. tarda) [µM] | MIC (M. morganii) [µM] | MIC (A. baumannii) [µM] | MIC (K. pneumoniae) [µM] | MIC (S. typhimurium) [µM]
1 | OCC(CO)(CO)NCC(O)Cn1c2ccc(Cl)cc2c2cc(Cl)ccc21 (stereo not shown) [DCAP, 2-((3-(3,6-dichloro-9H-carbazol-9-yl)-2-hydroxypropyl)amino)-2-(hydroxymethyl)propane-1,3-diol] | GFP-MinD mislocalized | ≥ 75 | significant decrease in λ576/λ530 | confirmed as having antibacterial activity | 100 | 100 | 200 | 200 | 200 | 100 | 50
2 | N#CC(C#N)=NNc1cccc(Cl)c1 [CCCP, carbonyl cyanide m-chlorophenyl hydrazone] | more diffuse fluorescence throughout the cell but had little effect on the location of the signal | – | significant decrease in λ576/λ530 | – | – | – | – | – | – | – | –
